The source of these data is patent US9161894B2, “Use of N-(4-methoxyphenyl)-1-phenyl-1H-pyrazol-3-amine and related compounds” (NPHARMAKON, LLC, priority 2011, dated 2015).

“And” between values parts separate entries of the source, which are not always exact repeats. Equal entries are not always repeated. Where two headings read alike, the source gives them in different places.

One series has as its target T1, Kit (human) (Homo sapiens, UniProt P10721).
T1 construct: purchased EMD Millipore Corporation (KinaseProfiler service)
Description: Millipore KinaseProfiler radiometric-based filtration binding assay of Kit kinase. Particulars: biochemical assay, read-out: IC50 of Kit kinase inhibition (converted). The method, then: To characterize the inhibitory activity of FPL-62064 against Kit kinase, the drug was tested using Millipore KinaseProfiler radiometric-based filtration binding assay (EMD Millipore Corporation, Billerica, Mass.). In a final reaction volume of 25 μL, Kit (human) (5-10 mU) was incubated with 8 mM MOPS pH 7.0, 0.2 mM EDTA, 10 mM MnCl2, 0.1 mg/mL poly(Glu, Tyr) 4:1, 10 mM MgAcetate and 10 μM [γ^33P-ATP] (specific activity approx. 500 cpm/pmol). The reaction was initiated by the addition of the MgATP mix. After incubation for 40 minutes at room temperature, the reaction was stopped by the addition of 5 μL of a 3% phosphoric acid solution. 10 μL of the reaction was then spotted onto a Filtermat A and washed three times for 5 minutes in 75 mM phosphoric acid and once in methanol prior to drying and scintillation counting.

In series [1] the target is T2, Kit autophosphorylation in M07e cells (Homo sapiens, UniProt P10721).
T2 construct: expressing endogenously a high level of wild-type Kit; host or cells: M07e (human acute megakaryoblastic leukemia)
Put plainly: Cellular Kit phosphorylation assay (ProQinase sandwich ELISA) in M07e cells. Format: cell-based.
Description: The human acute megakaryoblastic leukemia cell line M07e expressing endogenously a high level of wild-type Kit was used in the cellular Kit phosphorylation assay. Stimulation of these cells with human Kit ligand results in receptor tyrosine autophosphorylation. M07e cells were plated in RPMI supplemented with 20% FCS and 10 ng/ml GM-CSF in multiwell cell culture plates. After serum- and growth factor-starvation overnight, cells were incubated with test compounds in serum-free medium. Pre-diluted test samples were added 1:100 to the cell culture medium resulting in a final DMSO concentration of 1%. After 90 minute incubation at 37° C., cells were stimulated with 100 ng/ml Kit ligand for 3 minutes. Cells treated with staurosporine were defined as Low control, and cells treated with solvent alone were defined as High control. Test sample-treated cells, as well as High and Low control, were stimulated in identical manner. Quantification of substrate phosphorylation was assessed in 96 well plates via sandwich ELISA using a substrate specific capture antibody and an anti-phosphotyrosine detection antibody. Raw data were converted into percent substrate phosphorylation relative to High control, set to 100%. […] The equation is a four-parameter logistic equation.

Series [2] has as its system darker human skin (pigmentation). Put plainly: Single-blind pilot clinical study of skin lightening on darker human skin. Format: in vivo. Particulars: day 29 / end of study, significance at p<0.05. The method, then:
The study protocol and informed consent form were reviewed and approved by the Guangzhou Institutional Review Board (Guangzhou, China) prior to the initiation of the study. […]
The following test formulations were prepared and pH of each formulation was measured, as shown below. […]
Lower back of each subject was used as the test area. Five identically sized application sites (square 3 cm by 3 cm) were marked on the skin of each subject and labeled A through E. 0.1 gram of each material, as measured by extrusion from a syringe, was applied on the appropriate site, using a gloved finger, by a trained technician, guided by markings on the skin and the application site diagram. […]
L value (brightness) reading was taken in duplicate with the spectrophotometer CM-2600d (Konica Minolta, Osaka, Japan). The melanin (M) index reading was taken in duplicate with a Mexameter® MX18 (Courage & Khazaka, Cologne, Germany). […]
Statistical analysis was performed using the computer program SigmaStat 11 (Systat Software Inc., Chicago, Ill., USA) on a Microsoft Windows computer. For all data (Visual Scoring (VS), L value (brightness) (L), and MeIanin Index (M)), the baseline readings were subtracted prior to analysis. […]

The next series has as its system human skin. Description: Safety and adverse events at application sites in the pilot clinical study. Format: in vivo. Particulars: topical twice daily, any time point during the study. The procedure: Lower back of each subject was used as the test area. Five identically sized application sites (square 3 cm by 3 cm) were marked on the skin of each subject and labeled A through E. 0.1 gram of each material, as measured by extrusion from a syringe, was applied on the appropriate site, using a gloved finger, by a trained technician, guided by markings on the skin and the application site diagram. The application was carried out in an accredited outpatient facility twice daily (morning and afternoon/evening), 6 days per week (with no treatments on Sunday). The procedure was continued in the same manner for the duration of the study. Subjects 2, 3 and 4 entered the study on day 1 (Friday) and each received 48 treatments (no subject missed any of the treatments). Subjects 8, 9, and 10 entered the study on day 4 (Monday) and each received 44 treatments. No subject missed any of the treatments.
In all cases, the condition of the sites treated with Formulation E improved upon termination of the treatment.

The next series deals with T3, 5-lipoxygenase (5-LO) (Homo sapiens, UniProt P09917).
T3 sequence (P09917 1-674): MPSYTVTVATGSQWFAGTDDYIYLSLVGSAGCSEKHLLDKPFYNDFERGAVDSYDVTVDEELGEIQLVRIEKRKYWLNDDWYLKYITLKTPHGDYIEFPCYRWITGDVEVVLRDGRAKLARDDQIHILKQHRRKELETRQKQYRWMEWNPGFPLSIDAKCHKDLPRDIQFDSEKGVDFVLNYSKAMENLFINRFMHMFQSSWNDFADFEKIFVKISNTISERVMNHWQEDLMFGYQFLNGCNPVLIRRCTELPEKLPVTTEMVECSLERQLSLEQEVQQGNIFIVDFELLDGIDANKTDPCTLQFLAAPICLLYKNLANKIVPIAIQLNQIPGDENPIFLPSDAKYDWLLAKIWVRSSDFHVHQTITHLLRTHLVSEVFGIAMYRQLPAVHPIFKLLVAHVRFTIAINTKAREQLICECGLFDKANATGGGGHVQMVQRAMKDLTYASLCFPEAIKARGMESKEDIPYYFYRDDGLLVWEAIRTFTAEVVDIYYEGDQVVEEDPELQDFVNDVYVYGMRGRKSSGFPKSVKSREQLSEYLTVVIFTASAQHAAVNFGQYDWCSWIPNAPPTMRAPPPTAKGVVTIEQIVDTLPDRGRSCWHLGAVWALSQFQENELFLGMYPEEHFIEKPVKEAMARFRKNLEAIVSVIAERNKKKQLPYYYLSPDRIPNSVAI
Particulars: in vitro assays; cited from earlier work.

The target in series [3] is prostaglandin synthetase (PGS). Particulars: in vitro assays; cited from earlier work.
The target of series [4] is T4, 5-LO in intact RBL-1 cells (Rattus norvegicus, UniProt P12527).
T4 construct: endogenous in cells; host or cells: RBL-1 cells
T4 sequence (P12527 1-673): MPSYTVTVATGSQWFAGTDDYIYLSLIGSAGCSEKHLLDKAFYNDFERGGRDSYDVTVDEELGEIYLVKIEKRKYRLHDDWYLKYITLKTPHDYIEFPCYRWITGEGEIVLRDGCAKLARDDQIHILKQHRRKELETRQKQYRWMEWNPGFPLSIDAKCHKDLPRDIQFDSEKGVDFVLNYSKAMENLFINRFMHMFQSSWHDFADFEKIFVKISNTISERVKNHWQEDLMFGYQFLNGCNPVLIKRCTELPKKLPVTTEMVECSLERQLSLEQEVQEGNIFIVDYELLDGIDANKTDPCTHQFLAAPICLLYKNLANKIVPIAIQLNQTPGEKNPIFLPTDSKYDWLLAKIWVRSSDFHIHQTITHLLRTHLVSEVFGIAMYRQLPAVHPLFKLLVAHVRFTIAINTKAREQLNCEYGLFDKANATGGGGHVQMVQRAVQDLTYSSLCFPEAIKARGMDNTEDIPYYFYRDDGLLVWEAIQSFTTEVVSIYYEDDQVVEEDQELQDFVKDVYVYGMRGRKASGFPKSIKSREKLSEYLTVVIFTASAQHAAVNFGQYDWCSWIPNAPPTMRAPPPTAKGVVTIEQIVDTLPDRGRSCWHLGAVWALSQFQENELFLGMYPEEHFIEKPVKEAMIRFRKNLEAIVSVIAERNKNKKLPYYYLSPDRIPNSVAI
Particulars: cited from earlier work.

Series [5] relates to PGS in intact RBL-1 cells. Particulars: cited from earlier work.
The test system of series [6] is UV irradiation-induced erythema. Particulars: guinea pig; cited from earlier work.
The subject of series [7] is arachidonic acid-induced ear edema. Particulars: mouse ear; cited from earlier work.
In a further series the test system is rabbit skin edema. Particulars: co-injected with arachidonic acid; cited from earlier work.
Series [8] deals with immune-complex-induced peritoneal inflammation. Particulars: mouse, intraperitoneal, fine suspension in saline; cited from earlier work.
The subject of another series is carrageenin foot edema. Particulars: rats, oral route, doses up to 200 mg/kg; cited from earlier work.
The conditions of series [9]: cited from earlier work.
For series [10] the following is noted: humans, preliminary data; cited from earlier work.

T1 sequence (P10721 26-976): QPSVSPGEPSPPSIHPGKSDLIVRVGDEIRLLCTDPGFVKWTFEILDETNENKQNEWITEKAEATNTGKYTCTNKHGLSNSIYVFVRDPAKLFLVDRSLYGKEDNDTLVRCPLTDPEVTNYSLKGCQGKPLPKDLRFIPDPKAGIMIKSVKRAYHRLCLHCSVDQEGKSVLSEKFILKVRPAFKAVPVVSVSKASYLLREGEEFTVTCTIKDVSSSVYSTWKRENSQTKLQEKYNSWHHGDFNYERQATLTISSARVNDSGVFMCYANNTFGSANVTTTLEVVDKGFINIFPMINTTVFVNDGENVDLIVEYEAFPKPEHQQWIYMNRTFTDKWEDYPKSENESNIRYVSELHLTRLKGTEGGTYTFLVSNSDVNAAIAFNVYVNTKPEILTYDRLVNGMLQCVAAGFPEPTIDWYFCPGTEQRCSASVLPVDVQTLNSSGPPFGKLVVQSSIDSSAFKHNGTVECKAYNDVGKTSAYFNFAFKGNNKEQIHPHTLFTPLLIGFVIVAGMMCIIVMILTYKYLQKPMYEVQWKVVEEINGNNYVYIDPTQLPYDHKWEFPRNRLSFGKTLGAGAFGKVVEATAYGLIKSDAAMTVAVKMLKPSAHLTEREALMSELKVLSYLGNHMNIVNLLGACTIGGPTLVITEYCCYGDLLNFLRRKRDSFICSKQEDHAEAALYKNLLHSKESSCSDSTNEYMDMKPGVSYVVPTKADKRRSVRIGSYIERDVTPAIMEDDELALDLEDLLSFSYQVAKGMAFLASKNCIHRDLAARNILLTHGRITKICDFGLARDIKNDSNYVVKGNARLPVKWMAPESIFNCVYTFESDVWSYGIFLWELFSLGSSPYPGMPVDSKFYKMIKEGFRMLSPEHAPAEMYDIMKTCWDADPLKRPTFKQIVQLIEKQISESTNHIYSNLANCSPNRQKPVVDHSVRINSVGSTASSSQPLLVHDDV
T2 sequence (P10721 26-976): as above
T2 sequence (P21583 26-190 partner limits assumed): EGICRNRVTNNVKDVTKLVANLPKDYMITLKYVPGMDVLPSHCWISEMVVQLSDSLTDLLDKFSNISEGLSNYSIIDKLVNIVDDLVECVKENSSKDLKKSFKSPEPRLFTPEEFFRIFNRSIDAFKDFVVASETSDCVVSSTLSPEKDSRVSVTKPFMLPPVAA

For orientation: IC50 means the concentration that inhibits the measured activity by half. As to `COc1ccc(Nc2ccn(-c3ccccc3)n2)cc1` [FPL-62064, N-(4-methoxyphenyl)-1-phenyl-1H-pyrazol-3-amine], the IC50 is 6.9 µM and 6.89 µM at Kit (human) (10 μM ATP); 7.54 µM at Kit (human) (same value in mass units); 1.2 µM in series [1] (90 min incubation, 100 ng/ml Kit ligand); 1.13 µM in series [1] (same value in mass units); 3.5 to 11.5 µM on 5-lipoxygenase (5-LO); 3.1 µM in [3]. Further, the half-inhibitory concentration (IC50) in series [4] is 31 µM; in [5] it was 3.6 µM. The “change of the melanin index (M) from baseline compared to the control site (Formulation D, vehicle)” value in series [2] is reported as “statistically significant decrease”. For the same molecule, the “adverse events, sensitivity or irritation at treated sites” value in the series on human skin is recorded as “well tolerated”. For the same molecule, the “UV irradiation-induced erythema and prostaglandin E2 formation” value in series [6] is given as “inhibited”. The “edema formation and eicosanoid production induced by arachidonic acid” value in [7] is recorded as “inhibited”. In the series with rabbit skin edema, the “edema and eicosanoid formation” value is listed as “inhibited”. Also, the “activity against immune-complex-induced peritoneal inflammation” value in [8] is reported as “demonstrated local activity”. In addition, the “activity against carrageenin foot edema” value in the series with carrageenin foot edema is “inactive”. For the same molecule, the topical bioavailability entry in [9] (topical) is on record as “topically bioavailable”. For the same molecule, the metabolism entry in series [9] (upon intravenous administration) is “rapidly and extensively metabolized”. For the same molecule, in series [10], the “safety and tolerability of topical application” value is “safe and well tolerated”.
